Experimental data published in patent US9809602B2, “Compounds for treating viral infections” (INSTITUT PASTEUR KOREA, priority 2014, dated 2017).

Tested on: genotype 1/2 chimeric cell culture derived HCV (HCVcc)
Assay: Genotype 1/2 chimeric HCVcc assay (nano-luciferase, HCV replication)
Format: cell-based
Conditions: Hepatitis C virus
How it was run: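 EC50 (replication, nano-luciferase) and CC50 (viability, cellular ATP) were determined by non-linear regression 72 h after infection with a reporter HCVcc chimera carrying genotype 1a structural and 2a JFH-1 non-structural proteins. Compound was applied to Huh-7.5 cells 2 h before inoculation.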

| SMILES | EC50 [nM] |
| --- | --- |
| O=S(=O)(NCCCN1CCC(N2CCCCC2)CC1)c1ccc(Oc2ccccc2)cc1 [Compound 1060] | 100 to 1000 |
| COc1cc(C(=O)NCCCN2CCC(N3CCCCC3)CC2)ccc1-c1ccc(C(F)(F)F)cc1 [Compound 1115] | 100 to 1000 |
| O=C(NCCCN1CCC(N2CCCCC2)CC1)c1ccc(-c2ccc(C(F)(F)F)nc2)cc1 [Compound 1101] | 100 to 1000 |
| COc1ccc(Oc2ccc(C(=O)NCCCN3CCC(N4CCCCC4)CC3)cc2)cc1 [Compound 1032] | 100 to 1000 |
| O=C(NCCCN1CCC(N2CCCCC2)CC1)c1ccc2c(c1)NC(=O)c1ccccc1S2 [Compound 1066] | 1000 to 10000 |
| O=C(NCCNc1ccc(N2CCCCC2)cc1)c1ccc(Oc2ccccc2)cc1 [Compound 1057] | 1000 to 10000 |
| COc1cccc(-c2ccc(C(=O)NCCCN3CCC(N4CCCCC4)CC3)cc2)c1 [Compound 1018] | 100 to 1000 |
| O=C(NCCCN1CCC(N2CCCCC2)CC1)c1ccc(-c2ccc(F)cc2Cl)cc1 [Compound 1132] | 100 to 1000 |
| O=C(NCCCN1CCN(c2ccccc2)CC1)c1ccc(Oc2ccccc2)cc1 [Compound 1040] | 1000 to 10000 |
| O=C(NCCCN1CCC(N2CCCCC2)CC1)c1ccc(-c2ccccc2)cc1 [Compound 1005] | 100 to 1000 |
| O=C(NCCCN1CCC(N2CCCCC2)CC1)c1ccc(-c2ccccc2OC(F)(F)F)cc1 [Compound 1149] | 100 to 1000 |
| COc1cccc(Oc2ccc(C(=O)NCCCN3CCC(N4CCCCC4)CC3)cc2)c1 [Compound 1064] | > 10000 |
| CC(C)(C)c1ccc(-c2ccc(C(=O)NCCCN3CCC(N4CCCCC4)CC3)cc2)cc1 [Compound 1124] | 100 to 1000 |
| COc1ccccc1Oc1ccc(C(=O)NCCCN2CCC(N3CCCCC3)CC2)cc1 [Compound 1063] | > 10000 |
| COc1cc(-c2ccc(C(F)(F)F)cc2)ccc1C(=O)NCCCN1CCC(N2CCCCC2)CC1 [Compound 1155] | 100 to 1000 |
| Cc1ccc(-c2ccc(C(=O)NCCCN3CCC(N4CCCCC4)CC3)cc2)c(F)c1 [Compound 1135] | 100 to 1000 |
| O=C(NCCCN1CCC(N2CCCCC2)CC1)c1ccc(-c2ccc(F)cc2C(F)(F)F)cc1 [Compound 1133] | 100 to 1000 |
| Cc1ccccc1-c1ccc(C(=O)NCCCN2CCC(N3CCCCC3)CC2)cc1 [Compound 1015] | 100 to 1000 |
| O=C(NCCCN1CCC(Nc2ccccc2)CC1)c1ccc(Oc2ccccc2)cc1 [Compound 1058] | 1000 to 10000 |
| O=C(CCCN1CCC(N2CCCCC2)CC1)Nc1ccc(Oc2ccccc2)cc1 [Compound 1052] | 100 to 1000 |

Same assay, conditions: Hepatitis C virus, Huh7.5, 72 h

| SMILES | EC50 [nM] |
| --- | --- |
| CCN1CCc2c(sc(C(F)(F)F)c2CNC(=O)Nc2sc3c(c2C(=O)OC(C)(C)C)CCCC3)C1 [Compound 119] | < 100 |
| O=C(NCc1c(C(F)(F)F)sc2c1CCNC2)Nc1sc2c(c1C(=O)OCC(F)(F)F)CCCC2 [Compound 329] | < 100 |
| CCOC(=O)c1c(N/C(=N/C#N)NCc2c(-n3cccc3)sc3c2CCN(CC)C3)sc2c1CCCC2 [Compound 77] | > 10000 |
| CC(C)(C)OC(=O)c1c(NC(=O)NCc2c(Br)sc3c2CCNC3)sc2c1CCCCC2 [Compound 225] | < 100 |
| Cc1sc(NC(=O)NCc2c(-c3cccc(F)c3)sc3c2CCNC3)c(C(=O)OC(C)(C)C)c1C [Compound 364] | < 100 |
| CCN1CCc2c(sc(Br)c2CNC(=O)Nc2sc3c(c2C(=O)OC(C)C)CCCC3)C1 [Compound 174] | < 100 |
| CC(C)(C)OC(=O)c1c(NC(=O)NCc2c(Br)sc3c2CCNC3)sc2c1CCC2 [Compound 224] | < 100 |
| CCOC(=O)c1c(NC(=O)NCc2c(C(F)(F)F)sc3c2CCNC3)sc2c1CCCC2 [Compound 96] | < 100 |
| CCOC(=O)c1c(NC(=O)NCc2c(C(F)(F)F)sc3c2CCN(C(=O)C(C)N)C3)sc2c1CCCC2 (stereo not shown) [Compound 315] | < 100 |
| CC(C)(C)OC(=O)c1c(NC(=O)NCc2c(-c3ccncc3)sc3c2CCNC3)sc2c1CCCC2 [Compound 145] | < 100 |
| CCOC(=O)c1c(NC(=O)NCc2ccc(CN(C)C)cc2)sc2c1CCCC2 [Compound 29] | 100 to 1000 |
| CCOC(=O)c1c(NC(=O)NCc2c(C(F)(F)F)sc3c2CCN(CC)C3)sc2c1CCCC2 [Compound 118] | < 100 |
| CCOC(=O)c1cc2ccccc2cc1NC(=O)NCc1c(-n2cccc2)sc2c1CCN(CC)C2 [Compound 45] | 1000 to 10000 |
| CC(C)(C)OC(=O)c1c(NC(=O)NCc2c(C(F)(F)F)sc3c2CCNC3)sc2c1CCCC2 [Compound 117] | < 100 |
| CC(C)(C)OC(=O)c1c(NC(=O)NCc2c(-n3cccc3)sc3c2CCNC3)sc2c1CCOC2 [Compound 319] | < 100 |
| CCN1CCc2c(sc(-n3cccc3)c2NC(=O)Nc2sc3c(c2C(=O)OC(C)(C)C)CCCC3)C1 [Compound 105] | 1000 to 10000 |
| CCOC(=O)c1c(NC(=O)NCc2c(N3CCOCC3)sc3c2CCNC3)sc2c1CCCC2 [Compound 54] | 100 to 1000 |
| CC(C)(C)OC(=O)c1c(NC(=O)NCc2c(C3CC3)sc3c2CCNC3)sc2c1CCCC2 [Compound 285] | < 100 |
| CN1CCc2c(sc(-n3cccc3)c2CNC(=O)Nc2sc3c(c2C(=O)OC(C)(C)C)CCCC3)C1 [Compound 68] | < 100 |
| Cc1sc(NC(=O)NCc2c(-c3ccc(Cl)cc3)sc3c2CCNC3)c(C(=O)OC(C)(C)C)c1C [Compound 369] | < 100 |
| CC(C)(C)OC(=O)c1c(NC(=O)NCc2c(Br)sc3c2CC[N+](C)(C)C3)sc2c1CCCCC2 [Compound 255] | < 100 |
| CCN1CCc2c(sc(-n3cccc3)c2CNC(=O)Nc2sc3c(c2C(=O)OC)CCCC3)C1 [Compound 127] | < 100 |
| CCOC(=O)c1c(NC(=O)NCc2c(-n3cccc3)sc3c2CCNC3)sc2c1CCC(F)(F)C2 [Compound 75] | < 100 |
| NC(=O)c1c(NC(=O)NCc2c(C(F)(F)F)sc3c2CCNC3)sc2c1CCCC2 [Compound 374] | 1000 to 10000 |
| CC(C)(C)OC(=O)c1c(NC(=O)NCc2c(-n3cccc3)sc3c2CCNC3)sc2c1CCCCC2 [Compound 302] | < 100 |

| SMILES | EC50 [nM] |
| --- | --- |
| CCOC(=O)c1c(NC(=O)OCc2c(-n3cccc3)sc3c2CCN(CC)C3)sc2c1CCCC2 [Compound 94] | < 100 |
| CC(C)(C)OC(=O)c1c(NC(=O)NCc2c(-c3ccc4cc[nH]c4c3)sc3c2CCNC3)sc2c1CCCC2 [Compound 201] | 1000 to 10000 |
| Cc1sc(NC(=O)NCc2c(-n3cccc3)sc3c2CCNC3)c(C(=O)OC(C)C)c1C [Compound 215] | < 100 |
| CC(C)(C)OC(=O)c1c(NC(=O)NCc2c(-c3ccc(Cl)cc3)sc3c2CCNC3)sc2c1CCCC2 [Compound 179] | < 100 |
| CN1CCN(C(=O)c2c(NC(=O)NCc3c(-n4cccc4)sc4c3CCNC4)sc3c2CCCC3)CC1 [Compound 84] | 1000 to 10000 |
| CCOC(=O)c1c(NC(=O)NCc2c(-n3cccc3)sc(CN(C)C)c2C)sc2c1CCCC2 [Compound 22] | < 100 |
| Cc1sc(NC(=O)NCc2c(-n3c(C)ccc3C)sc3c2CCNC3)c(C(=O)OC(C)(C)C)c1C [Compound 352] | 1000 to 10000 |
| Cc1sc(NC(=O)NCc2c(Br)sc3c2CCNC3)c(C(=O)OC(C)(C)C)c1C [Compound 138] | < 100 |
| CCOC(=O)c1c(NC(=O)NCc2c(-n3cccc3)sc3c2CCN(CC)C3)sc2c1CCCC2 [Compound 2] | < 100 |
| CC(C)(C)OC(=O)c1c(NC(=O)NCc2c(-c3cccc(Cl)c3)sc3c2CCNC3)sc2c1CCCC2 [Compound 180] | < 100 |
| CCOC(=O)c1c(NC(=O)NCc2c(C(F)(F)F)sc3c2CCN(C(C)C)C3)sc2c1CCCC2 [Compound 198] | < 100 |
| O=C(NCc1c(Br)sc2c1CCNC2)Nc1sc2c(c1C(=O)OC1CCCCC1)CCCC2 [Compound 271] | < 100 |
| Cc1sc(NC(=O)NCc2c(-c3cccc(F)c3)sc3c2CCNC3)c(C(=O)OC(C)C)c1C [Compound 251] | < 100 |
| Cc1c(CNC(=O)Nc2sc3c(c2C(=O)OC(C)(C)C)CCCC3)csc1CN(C)C [Compound 189] | < 100 |
| CCc1sc2c(c1CNC(=O)Nc1sc3c(c1C(=O)OC(C)(C)C)CCC3)CCNC2 [Compound 314] | < 100 |
| CC1CCc2sc(NC(=O)NCc3c(C(F)(F)F)sc4c3CCNC4)c(C(=O)OC(C)(C)C)c2C1 (stereo not shown) [Compound 233] | < 100 |
| CCOC(=O)c1c(NC(=O)NCc2c(Cl)sc3c2CCNC3)sc2c1CCCC2 [Compound 97] | 100 to 1000 |
| CCN1CCc2c(sc(Br)c2CNC(=O)Nc2sc(C)c(C)c2C(=O)OC(C)C)C1 [Compound 264] | < 100 |
| CCN1CCc2c(sc(-n3cccc3)c2CNC(=O)Nc2sc3c(c2C(=O)OC2CCCC2)CCCC3)C1 [Compound 222] | < 100 |
| CC(C)(C)OC(=O)c1c(NC(=O)NCc2c(-c3ccc(Cl)c(Cl)c3)sc3c2CCNC3)sc2c1CCCC2 [Compound 287] | 100 to 1000 |
| CCOC(=O)c1cc(C(C)C)sc1NC(=O)NCc1c(-n2cccc2)sc2c1CCN(CC)C2 [Compound 24] | 100 to 1000 |
| CC1Cc2c(sc(NC(=O)NCc3c(Br)sc4c3CCNC4)c2C(=O)OC(C)(C)C)C(C)C1 (stereo not shown) [Compound 267] | < 100 |
| CC(C)(C)OC(=O)c1c(NC(=O)NCc2c(C(F)(F)F)sc3c2CCNC3)sc2c1CCC(O)C2 (stereo not shown) [Compound 349] | < 100 |
| CN1CCc2c(sc(-n3cccc3)c2CNC(=O)Nc2sc3c(c2C(=O)OC(C)(C)C)CCCCC3)C1 [Compound 301] | < 100 |
| COC(=O)c1c(NC(=O)NCc2c(-n3cccc3)sc3c2CCNC3)sc2c1CCCC2 [Compound 142] | 100 to 1000 |
